What all share (assay): level (log10 ratio to DMSO vehicle control); higher = higher biomarker level / cell amount than vehicle control
Holding throughout (conditions): in DMSO

Compound in one assay: O=C(O)C(F)(F)C(F)(F)C(F)(F)C(=O)O [Hexafluoroglutaric acid]
How it is done:
(§1)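 BioMAP Diversity Plus panel of 12 human primary cell co-culture systems (3C, 4H, LPS, SAg, BT, BF4T, BE3C, CASM3C, HDF3CGF, KF3CT, MyoF, Mphg). Compounds were added 1 h before stimulation and left for 24 h (MyoF 48 h; BT 72 h for soluble read-outs or 6 d for IgG). Biomarkers were read by ELISA, cytotoxicity by SRB, PBMC viability and proliferation by Alamar Blue. Each well value was divided by the mean of 8 DMSO control wells on the same plate and log10 transformed; duplicate blinded samples were tested at 4 concentrations.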

Compound in assay [1]: O=S(=O)(O)C(F)(F)C(F)(F)C(F)(F)C(F)(F)F [Perfluorobutanesulfonic acid]
The procedure: as §1

Compound in assay [2]: C=C(C)C(=O)OCC(F)(F)C(F)(F)C(F)(F)C(F)(F)C(F)(F)C(F)(F)C(F)(F)F
The procedure:
as §1

Compound in assay [3]: C=CC(=O)OCCC(F)(F)C(F)(F)C(F)(F)C(F)(F)F [2-(Perfluorobutyl)ethyl acrylate]
The procedure: as §1

Compound in another assay: OCC(F)(F)C(F)(F)C(F)(F)F [1H,1H-Heptafluorobutanol]
How it is done: as §1

Compound in assay [4]: FC(F)(F)C(F)(F)C(F)(F)C(F)(F)C(F)(F)C(F)(F)C(F)(F)CCI [1-Iodo-1H,1H,2H,2H-perfluorononane]
The procedure:
as §1

Compound in another assay: NC(=O)C(F)(F)C(F)(F)C(F)(F)C(F)(F)C(F)(F)C(F)(F)C(F)(F)F [Perfluorooctanamide]
How it is done:
as §1

± gives the standard deviation of the averaged measurements.

For the test system SAg:CD69, the “level (log10)” value is -0.0125 ± 0.0064 with Hexafluoroglutaric acid (6700 nM); -0.016 ± 0.013 with Hexafluoroglutaric acid (20000 nM); 0.005 ± 0.0042 with Hexafluoroglutaric acid (60000 nM); -0.008 ± 0.0028 in assay [1] (6700 nM); -0.013 ± 0.017 in assay [1] (20000 nM); -0.043 ± 0.037 in assay [1] (60000 nM). Moreover, the “level (log10)” value is -0.01 ± 0.05 in assay [2] (6700 nM); -0.001 ± 0.045 in assay [2] (20000 nM); -0.028 ± 0.0028 in assay [3] (6700 nM); -0.0845 ± 0.026 in assay [3] (20000 nM); -0.225 ± 0.037 in assay [3] (60000 nM); -0.013 ± 0.017 with 1H,1H-Heptafluorobutanol (6700 nM). In addition, the “level (log10)” value with 1H,1H-Heptafluorobutanol (20000 nM) was -0.0035 ± 0.016; with 1H,1H-Heptafluorobutanol (60000 nM), 0.02 ± 0.016; in assay [4] (6700 nM) it was -0.011 ± 0.017; in assay [4] (20000 nM), -0.0015 ± 0.018; with Perfluorooctanamide (6700 nM), -0.002 ± 0.028; with Perfluorooctanamide (20000 nM), 0.0025 ± 0.013. Also, the “level (log10)” value with Perfluorooctanamide (60000 nM) is -0.0065 ± 0.023.

As to SAg:CXCL8/IL-8, the “level (log10)” value with Hexafluoroglutaric acid (6700 nM) was -0.011; with Hexafluoroglutaric acid (20000 nM) it was -0.041 ± 0.042; in the assay with Hexafluoroglutaric acid (60000 nM) it was 0.0285 ± 0.077; in assay [1] (6700 nM), -0.0025 ± 0.023; in assay [1] (20000 nM) it was -0.001 ± 0.014; in assay [1] (60000 nM) it was 0.049 ± 0.037. The “level (log10)” value in assay [2] (6700 nM) was -0.024 ± 0.031; in assay [2] (20000 nM) it was 0.0185 ± 0.0064; in assay [3] (6700 nM), -0.029 ± 0.0099; in assay [3] (20000 nM) it was -0.103 ± 0.013; in assay [3] (60000 nM) it was -0.31 ± 0.064; in the assay with 1H,1H-Heptafluorobutanol (6700 nM), 0.012 ± 0.0085. Further, the “level (log10)” value with 1H,1H-Heptafluorobutanol (20000 nM) was -0.0055 ± 0.0021; with 1H,1H-Heptafluorobutanol (60000 nM), -0.0045 ± 0.1; in assay [4] (6700 nM), -0.0055 ± 0.019; in assay [4] (20000 nM) it was 0.004 ± 0.045; with Perfluorooctanamide (6700 nM), -0.019 ± 0.041; in the assay with Perfluorooctanamide (20000 nM), -0.0255 ± 0.0021. Besides, the “level (log10)” value with Perfluorooctanamide (60000 nM) amounted to 0.056.

Turning to SAg:CXCL9/MIG, the “level (log10)” value is -0.0015 ± 0.00071 in the assay with Hexafluoroglutaric acid (6700 nM); -0.012 ± 0.0042 with Hexafluoroglutaric acid (20000 nM); -0.0005 ± 0.005 with Hexafluoroglutaric acid (60000 nM); -0.0105 ± 0.00071 in assay [1] (6700 nM); 0.002 ± 0.014 in assay [1] (20000 nM); -0.002 ± 0.02 in assay [1] (60000 nM). Moreover, the “level (log10)” value was -0.003 ± 0.017 in assay [2] (6700 nM); 0.009 ± 0.0014 in assay [2] (20000 nM); -0.007 ± 0.016 in assay [3] (6700 nM); 0.001 ± 0.0057 in assay [3] (20000 nM); -0.004 ± 0.013 in assay [3] (60000 nM); -0.003 ± 0.031 with 1H,1H-Heptafluorobutanol (6700 nM). Also, the “level (log10)” value in the assay with 1H,1H-Heptafluorobutanol (20000 nM) is -0.001 ± 0.018; with 1H,1H-Heptafluorobutanol (60000 nM), 0.018 ± 0.014; in assay [4] (6700 nM) it was -0.009 ± 0.0071; in assay [4] (20000 nM) it was 0.006 ± 0.0057; with Perfluorooctanamide (6700 nM), -0.0075 ± 0.005; with Perfluorooctanamide (20000 nM), -0.0025 ± 0.012. The “level (log10)” value in the assay with Perfluorooctanamide (60000 nM) is 0.009 ± 0.0057.

As to SAg:PBMC Cytotoxicity, the “level (log10)” value with Hexafluoroglutaric acid (6700 nM) is 0.0035 ± 0.0078; with Hexafluoroglutaric acid (20000 nM), 0.014 ± 0.0042; with Hexafluoroglutaric acid (60000 nM) it was -0.005 ± 0.058; in assay [1] (6700 nM), -0.029 ± 0.038; in assay [1] (20000 nM), -0.0315 ± 0.036; in assay [1] (60000 nM), 0.023 ± 0.024. Moreover, the “level (log10)” value is 0.0115 ± 0.005 in assay [2] (6700 nM); 0.0265 ± 0.046 in assay [2] (20000 nM); -0.034 ± 0.0085 in assay [3] (6700 nM); -0.0385 ± 0.011 in assay [3] (20000 nM); -0.125 ± 0.028 in assay [3] (60000 nM); -0.0165 ± 0.012 with 1H,1H-Heptafluorobutanol (6700 nM). Further, the “level (log10)” value in the assay with 1H,1H-Heptafluorobutanol (20000 nM) was -0.024 ± 0.024; with 1H,1H-Heptafluorobutanol (60000 nM) it was 0.0155 ± 0.047; in assay [4] (6700 nM) it was -0.005 ± 0.045; in assay [4] (20000 nM) it was 0.0205 ± 0.035; with Perfluorooctanamide (6700 nM), -0.027 ± 0.038; in the assay with Perfluorooctanamide (20000 nM), -0.0135 ± 0.025. Also, the “level (log10)” value in the assay with Perfluorooctanamide (60000 nM) was 0.024 ± 0.034.

Take SAg:Proliferation: the “level (log10)” value with Hexafluoroglutaric acid (6700 nM) was -0.019 ± 0.0071; in the assay with Hexafluoroglutaric acid (20000 nM), -0.0445 ± 0.033; with Hexafluoroglutaric acid (60000 nM), -0.0275 ± 0.013; in assay [1] (6700 nM), -0.0295 ± 0.11; in assay [1] (20000 nM), -0.0385 ± 0.023; in assay [1] (60000 nM), 0.039 ± 0.017. The “level (log10)” value in assay [2] (6700 nM) is 0.0015 ± 0.0064; in assay [2] (20000 nM) it was 0.0185 ± 0.0092; in assay [3] (6700 nM), -0.043 ± 0.035; in assay [3] (20000 nM), -0.122 ± 0.035; in assay [3] (60000 nM), -0.372 ± 0.1; in the assay with 1H,1H-Heptafluorobutanol (6700 nM) it was 0.009 ± 0.0042. Also, the “level (log10)” value with 1H,1H-Heptafluorobutanol (20000 nM) is 0.008 ± 0.02; with 1H,1H-Heptafluorobutanol (60000 nM), 0.0125 ± 0.021; in assay [4] (6700 nM) it was -0.0025 ± 0.063; in assay [4] (20000 nM), -0.0055 ± 0.074; with Perfluorooctanamide (6700 nM), -0.05 ± 0.071; in the assay with Perfluorooctanamide (20000 nM), -0.0255 ± 0.033. In the assay with Perfluorooctanamide (60000 nM), the “level (log10)” value was -0.001 ± 0.0014.

As to SAg:SRB, the “level (log10)” value with Hexafluoroglutaric acid (6700 nM) was -0.0055 ± 0.00071; with Hexafluoroglutaric acid (20000 nM) it was -0.0105 ± 0.016; in the assay with Hexafluoroglutaric acid (60000 nM), -0.0035 ± 0.016; in assay [1] (6700 nM), 0.0005 ± 0.0092; in assay [1] (20000 nM) it was -0.0085 ± 0.0092; in assay [1] (60000 nM), -0.0055 ± 0.013. Besides, the “level (log10)” value was -0.001 ± 0.0099 in assay [2] (6700 nM); -0.0095 ± 0.021 in assay [2] (20000 nM); 0.009 ± 0.0071 in assay [3] (6700 nM); 0.0115 ± 0.0092 in assay [3] (20000 nM); -0.0175 ± 0.028 in assay [3] (60000 nM); -0.0055 ± 0.011 in the assay with 1H,1H-Heptafluorobutanol (6700 nM). In addition, the “level (log10)” value in the assay with 1H,1H-Heptafluorobutanol (20000 nM) was 0.0045 ± 0.0035; with 1H,1H-Heptafluorobutanol (60000 nM) it was 0.004 ± 0.0057; in assay [4] (6700 nM), 0.0175 ± 0.005; in assay [4] (20000 nM), 0.031 ± 0.017; in the assay with Perfluorooctanamide (6700 nM), 0.002 ± 0.0071; with Perfluorooctanamide (20000 nM) it was -0.0005 ± 0.0064. Moreover, the “level (log10)” value in the assay with Perfluorooctanamide (60000 nM) is -0.009 ± 0.0014.

The values are drawn from the supplement of paper PMC10331698.
